Results as given in patent publication US6596867B2, “Tartrate salt of a substituted dipeptide as growth hormone secretagogue” (Pfizer Inc., priority 1997, dated 2003).
Structures can show the parent of a compound that is named as a salt.

Columns and labels:
[1] = solubility of the crystalline salt (stated property); assay type: physicochemical; conditions: crystalline form
[2] = stability of the crystalline salt (stated property); assay type: physicochemical; conditions: crystalline form

SMILES: CC(C)(N)C(=O)N[C@H](COCc1ccc(F)cc1F)C(=O)N1CCC2=NN(CC(F)(F)F)C(=O)[C@]2(Cc2ccccn2)C1 [2-Amino-N-{1-(2,4-difluoro-benzyloxymethyl)-2-oxo-2-[3-oxo-3a-pyridin-2-ylmethyl-2-(2,2.2-trifluoro-ethyl)-2,3,3a,4,6,7-hexahydro-pyrazolo[4,3-c]pyridin-5-yl]-ethyl}-2-methyl-propionamide L-(+) tartrate]
- solubility [1]: high solubility
- stability [2]: good stability
